Experimental data published in PubChem BioAssay AID2060892 (Molecular Pharmacology Branch, DTP, NCI, 2025).

Tested on: HOP-62 complex spheroids with HUVEC/MSC, viability
Experiment: Anticancer human tumor HOP-62 cell line growth inhibition [RAS];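 note: spheroids exposed to agents for seven days before readout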;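 for viability, T/C: 100% = DMSO vehicle control viability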
Conditions: for IC50: curve of first compound; for viability, T/C: stronger effect = lower value
From the text: RAS pathway inhibitors in Combinations in Complex Spheroids
A high-throughput screen of multi-cell type tumor spheroids was designed to identify active combinations of RAS pathway inhibitors and targeted small molecules. Complex spheroids include a stromal component modeled by human endothelial cells (HUVEC) and fibroblasts modeled by human mesenchymal stem cells (MSCs). The concentration ranges selected for each drug and investigational agent were based upon clinically achievable concentrations if the clinical Cmax of the agent was known.
Compounds. The drugs and investigational agents: abemaciclib (NSC768073), cobimetinib (NSC768068), divarasib (GDC6063, NSC841802), docetaxel (NSC628503), GDC-1971 (RLY-1971, NSC841576), gemcitabine (NSC613327), inavolisib (NSC800729), ipatasertib (NSC767898), KB-0742 (NSC834161), MRTX-1133 (NSC836407), osimertinib (NSC779217), RMC-4630 (NSC839698), RMC-6236 (NSC851965), RMC-6291 (NSC852671), Ro-3306 (NSC812927), sapanisertib (NSC764658), SN-38 (NSC673596), staurosporine (NSC755774), SY5609 (NSC837396), and tovorafenib (DAY101, NSC766906), were obtained from the National Cancer Institute (NCI) Developmental Therapeutics Program Chemical Repository. The FDA-approved anticancer drug set is available from the NCI Developmental Therapeutics Program. […] The stock solutions were prepared in dimethyl sulfoxide (DMSO, Sigma-Aldrich, St. Louis, MO, cat. D2650) at 800-fold the tested concentration and stored at -70 degrees C prior to their use. All drugs and investigational agents were tested over a range starting from a high concentration at or near the clinical Cmax and decreasing in half-log increments. If the clinical Cmax for an agent had not been determined, the highest concentration tested was 10 microM.
Cell Culture. All cells were maintained in an incubator at 37 degrees C and 5% CO2 with 95% humidity. The PDC lines were cultured according to standard operating procedures established by the NCI PDMR. All PDCs were thawed and cultured in Matrigel-coated flasks prepared with a working solution of 1X Ham's F-12 nutrient mix, without supplementation (Invitrogen, Waltham, MA, cat. 11765054), 100 U/mL penicillin-streptomycin (Invitrogen, cat. 15140122), and 2.5% Matrigel (Corning Inc., Corning, NY, cat. 354248) for the first three passages. The 362531-283-R-J2-PDC and 782815-120-R-J1-PDC lines were cultured in 6C/Colon 1B media, which includes advanced DMEM/F-12 (Thermo Fisher Scientific, cat. 12634028), 10 mM HEPES (Thermo Fisher Scientific, cat. 15630080), 1X GlutaMAX supplement (Thermo Fisher Scientific, cat. 35050061), 0.1 mg/mL primocin (InvivoGen, San Diego, CA, cat. ant-pm-2), 10% defined fetal bovine serum, heat inactivated (HyClone Laboratories Inc., Logan, UT, cat. SH30070.03HI), 50% L-WRN conditioned media (ATCC, cat. CRL-3276), 1.25 mM N-Acetyl-L-cysteine (Sigma-Aldrich, cat. A9165), 10 mM nicotinamide (Sigma-Aldrich, cat. N0636), 1X B-27 supplement (Thermo Fisher Scientific, cat. 17504044), 1X N-2 supplement (Thermo Fisher Scientific, cat. 17502048), 50 ng/mL human EGF (Thermo Fisher Scientific, cat. PHG0311), and 10 microM Y-27632 dihydrochloride (Tocris Bioscience, cat. 1254). The K12877-001-R-J1-PDC line was cultured in 6I media, which includes all 6C/Colon 1B media plus 10 ng/mL human FGF-10 (PeproTech, cat. 100-26), 1 ng/mL human FGF-2 (PeproTech, cat. 100-18B), 1 µM prostaglandin E2 (Tocris Bioscience, cat. 2296), […] hydrocortisone (Sigma-Aldrich, cat. H4001), and […] bovine insulin (Sigma-Aldrich, cat. I6634). The K86415-001-R-J1-PDC line was cultured in 6D media, which includes all 6C/Colon 1B media components minus the L-WRN conditioned media. The 485176-168-R4-J1-PDC was cultured in PANC media, which includes all 6C/Colon 1B media plus 100 ng/mL human FGF-10 (PeproTech, cat. 100-26), 500 nM SB-431542 (Selleckchem, cat. S1067), and 10 nM gastrin (Tocris Bioscience, cat. 3006). […]

[1] = second compound 0.000949 µM, first compound 0.0316 µM
[2] = second compound 0.000949 µM, first compound 0.1 µM
[3] = second compound 0.000949 µM, first compound 0.316 µM
[4] = second compound 0.000949 µM, first compound 1 µM
[5] = second compound 0.000949 µM, first compound 3.16 µM
[6] = second compound 0.000949 µM, first compound 10 µM
[7] = second compound 0.003 µM, first compound 0.0316 µM
[8] = second compound 0.003 µM, first compound 0.1 µM
[9] = second compound 0.003 µM, first compound 0.316 µM
[10] = second compound 0.003 µM, first compound 1 µM
[11] = second compound 0.003 µM, first compound 3.16 µM
[12] = second compound 0.003 µM, first compound 10 µM
[13] = second compound 0.00949 µM, first compound 0.0316 µM
[14] = second compound 0.00949 µM, first compound 0.1 µM
[15] = second compound 0.00949 µM, first compound 0.316 µM
[16] = second compound 0.00949 µM, first compound 1 µM
[17] = second compound 0.00949 µM, first compound 3.16 µM
[18] = second compound 0.00949 µM, first compound 10 µM
[19] = second compound 0.03 µM, first compound 0.0316 µM
[20] = second compound 0.03 µM, first compound 0.1 µM
[21] = second compound 0.03 µM, first compound 0.316 µM
[22] = second compound 0.03 µM, first compound 1 µM
[23] = second compound 0.03 µM, first compound 3.16 µM
[24] = second compound 0.03 µM, first compound 10 µM
[25] = second compound 0.0949 µM, first compound 0.0316 µM
[26] = second compound 0.0949 µM, first compound 0.1 µM
[27] = second compound 0.0949 µM, first compound 0.316 µM
[28] = second compound 0.0949 µM, first compound 1 µM
[29] = second compound 0.0949 µM, first compound 3.16 µM
[30] = second compound 0.0949 µM, first compound 10 µM
[31] = second compound 0.3 µM, first compound 0.0316 µM
[32] = second compound 0.3 µM, first compound 0.1 µM
[33] = second compound 0.3 µM, first compound 0.316 µM
[34] = second compound 0.3 µM, first compound 1 µM
[35] = second compound 0.3 µM, first compound 3.16 µM
[36] = second compound 0.3 µM, first compound 10 µM

CC1(O)CCCC1n1c(=O)c(C(F)F)cc2cnc(NC3CCN(S(C)(=O)=O)CC3)nc21 (stereo unspecified) + CCn1c(-c2cc(N3CCN(C)CC3)cnc2C(C)OC)c2c3cc(ccc31)-c1csc(n1)CC(NC(=O)C1CC1C)C(=O)N1CCCC(N1)C(=O)OCC(C)(C)C2
IC50 (second compound 0.000949 µM): 5050 nM | IC50 (second compound 0.003 µM): 3770 nM | IC50 (second compound 0.00949 µM): 1060 nM | IC50 (second compound 0.03 µM): < 31.6 nM | IC50 (second compound 0.0949 µM): < 31.6 nM | IC50 (second compound 0.3 µM): < 31.6 nM | viability, T/C [1]: 104% | viability, T/C [2]: 87.2% | viability, T/C [3]: 57.5% | viability, T/C [4]: 80.3% | viability, T/C [5]: 83.6% | viability, T/C [6]: 2.49% | viability, T/C [7]: 87.4% | viability, T/C [8]: 65.2% | viability, T/C [9]: 58.9% | viability, T/C [10]: 62.3% | viability, T/C [11]: 61.1% | viability, T/C [12]: 2.49% | viability, T/C [13]: 69.7% | viability, T/C [14]: 53.8% | viability, T/C [15]: 57.8% | viability, T/C [16]: 46.5% | viability, T/C [17]: 40.6% | viability, T/C [18]: 2.35% | viability, T/C [19]: 49.7% | viability, T/C [20]: 44.1% | viability, T/C [21]: 36.5% | viability, T/C [22]: 49.3% | viability, T/C [23]: 23.2% | viability, T/C [24]: 2.84% | viability, T/C [25]: 32.5% | viability, T/C [26]: 33.9% | viability, T/C [27]: 33.8% | viability, T/C [28]: 37.1% | viability, T/C [29]: 19.5% | viability, T/C [30]: 3.11% | viability, T/C [31]: 36.9% | viability, T/C [32]: 34.2% | viability, T/C [33]: 34.3% | viability, T/C [34]: 30.9% | viability, T/C [35]: 20.8% | viability, T/C [36]: 3.29%

CC(Nc1ccc2c(c1)OCCn1cc(N3C(=O)OCC3C(F)F)nc1-2)C(N)=O (stereo unspecified) + CCn1c(-c2cccnc2C(C)OC)c2c3cc(ccc31)N1CCOC(CC(NC(=O)C(C(C)C)N(C)C(=O)C3(F)CCN(C(=O)C#CC(C)(C)N(C)C)CC3)C(=O)N3CCCC(N3)C(=O)OCC(C)(C)C2)C1
IC50 (second compound 0.000949 µM): 659 nM | IC50 (second compound 0.003 µM): 649 nM | IC50 (second compound 0.00949 µM): 326 nM | IC50 (second compound 0.03 µM): 260 nM | IC50 (second compound 0.0949 µM): 182 nM | IC50 (second compound 0.3 µM): 152 nM | viability, T/C [1]: 99.7% | viability, T/C [2]: 75.4% | viability, T/C [3]: 45.1% | viability, T/C [4]: 54.2% | viability, T/C [5]: 50.6% | viability, T/C [6]: 23.9% | viability, T/C [7]: 87% | viability, T/C [8]: 85.9% | viability, T/C [9]: 42.3% | viability, T/C [10]: 50.9% | viability, T/C [11]: 36.6% | viability, T/C [12]: 19.6% | viability, T/C [13]: 99.3% | viability, T/C [14]: 60.1% | viability, T/C [15]: 51.9% | viability, T/C [16]: 46.9% | viability, T/C [17]: 32.1% | viability, T/C [18]: 22.4% | viability, T/C [19]: 124% | viability, T/C [20]: 59.4% | viability, T/C [21]: 55.2% | viability, T/C [22]: 42.3% | viability, T/C [23]: 25.6% | viability, T/C [24]: 22.8% | viability, T/C [25]: 103% | viability, T/C [26]: 53.9% | viability, T/C [27]: 43.9% | viability, T/C [28]: 37% | viability, T/C [29]: 20.1% | viability, T/C [30]: 19% | viability, T/C [31]: 58.5% | viability, T/C [32]: 49.8% | viability, T/C [33]: 47.9% | viability, T/C [34]: 30.2% | viability, T/C [35]: 25.2% | viability, T/C [36]: 19.1%

CCN1CCN(Cc2ccc(Nc3ncc(F)c(-c4cc(F)c5nc(C)n(C(C)C)c5c4)n3)nc2)CC1 + CCn1c(-c2cccnc2C(C)OC)c2c3cc(ccc31)N1CCOC(CC(NC(=O)C(C(C)C)N(C)C(=O)C3(F)CCN(C(=O)C#CC(C)(C)N(C)C)CC3)C(=O)N3CCCC(N3)C(=O)OCC(C)(C)C2)C1
IC50 (second compound 0.000949 µM): > 1000 nM | IC50 (second compound 0.003 µM): > 1000 nM | IC50 (second compound 0.00949 µM): > 1000 nM | IC50 (second compound 0.03 µM): > 1000 nM | IC50 (second compound 0.0949 µM): > 1000 nM | IC50 (second compound 0.3 µM): > 1000 nM | viability, T/C (second compound 0.000949 µM, first compound 0.00316 µM): 106% | viability, T/C (second compound 0.000949 µM, first compound 0.01 µM): 116% | viability, T/C [1]: 86.5% | viability, T/C [2]: 108% | viability, T/C [3]: 107% | viability, T/C [4]: 92.3% | viability, T/C (second compound 0.003 µM, first compound 0.00316 µM): 102% | viability, T/C (second compound 0.003 µM, first compound 0.01 µM): 99.7% | viability, T/C [7]: 68.9% | viability, T/C [8]: 97% | viability, T/C [9]: 97.5% | viability, T/C [10]: 76.8% | viability, T/C (second compound 0.00949 µM, first compound 0.00316 µM): 100% | viability, T/C (second compound 0.00949 µM, first compound 0.01 µM): 81.7% | viability, T/C [13]: 84.2% | viability, T/C [14]: 87.9% | viability, T/C [15]: 88.6% | viability, T/C [16]: 79.2% | viability, T/C (second compound 0.03 µM, first compound 0.00316 µM): 96.6% | viability, T/C (second compound 0.03 µM, first compound 0.01 µM): 86.7% | viability, T/C [19]: 82.8% | viability, T/C [20]: 85.3% | viability, T/C [21]: 78.6% | viability, T/C [22]: 89.5% | viability, T/C (second compound 0.0949 µM, first compound 0.00316 µM): 87.8% | viability, T/C (second compound 0.0949 µM, first compound 0.01 µM): 97.7% | viability, T/C [25]: 79.7% | viability, T/C [26]: 74.4% | viability, T/C [27]: 68.3% | viability, T/C [28]: 97.4% | viability, T/C (second compound 0.3 µM, first compound 0.00316 µM): 90.2% | viability, T/C (second compound 0.3 µM, first compound 0.01 µM): 78.9% | viability, T/C [31]: 79.7% | viability, T/C [32]: 70.2% | viability, T/C [33]: 74.3% | viability, T/C [34]: 91.4%
